{
  "source": "paper PMC5684506",
  "about": "(BioImpacts : BI, 2017)",
  "biological_target": "T1, bovine liver catalase (BLC) (Bos taurus, UniProt P00432)",
  "T1 sequence (P00432 2-527)": "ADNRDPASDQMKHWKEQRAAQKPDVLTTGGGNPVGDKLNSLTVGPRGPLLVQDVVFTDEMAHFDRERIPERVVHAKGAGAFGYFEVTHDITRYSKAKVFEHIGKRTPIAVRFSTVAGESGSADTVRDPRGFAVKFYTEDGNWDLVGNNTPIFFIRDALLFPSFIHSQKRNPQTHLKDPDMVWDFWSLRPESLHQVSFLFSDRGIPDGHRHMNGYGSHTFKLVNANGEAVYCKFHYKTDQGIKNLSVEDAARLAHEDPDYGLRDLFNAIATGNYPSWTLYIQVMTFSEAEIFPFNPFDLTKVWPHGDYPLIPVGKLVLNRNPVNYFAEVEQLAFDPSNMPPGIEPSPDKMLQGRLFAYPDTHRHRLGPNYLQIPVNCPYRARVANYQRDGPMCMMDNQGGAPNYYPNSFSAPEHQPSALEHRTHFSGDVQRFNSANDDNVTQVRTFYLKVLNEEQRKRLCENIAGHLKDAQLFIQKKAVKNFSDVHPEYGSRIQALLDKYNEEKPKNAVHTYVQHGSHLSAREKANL",
  "test": "UV assay of H2O2 decomposition at […] nm with Lineweaver-Burk analysis",
  "type": "biochemical",
  "data": [
    {"smiles": "O=c1c(O)c(-c2ccc(O)c(O)c2)oc2cc(O)cc(O)c12", "note": "[QUE, 3,5,7,3ʹ,4ʹ-pentahydroxyflavone]", "values": [
      {"measurement": "Ki", "result": 46, "unit": "µM"}
    ]}
  ]
}
